# Assay results: ChEMBL document CHEMBL1201862, “PubChem BioAssay data set” (2004)
# Calls of active or inactive are those of the source.
# Experiments:
# [1] = molecular target: Neurotensin receptor type 1 (Homo sapiens, UniProt P30989); type: functional;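 further: Image-based confirmatory dose-response assay measuring agonist activity at NTR1; NTR1-expressing U2OS osteosarcoma cells imaged for beta-arrestin GFP spot formation; agonist potency where compounds increase beta-arrestin recruitment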
# [2] = Luminescence Cell-Based Dose Response HTS to Identify Inhibitors of 5'UTR Stem-Loop Driven Prion Protein mRNA Translation in H4 Neuroglioblastoma Cells. [Related pubchem assays: 1827 (Project Summary), 1813 (Primary HTS)]; type: functional
# BJ [3] = assay: BJ-TERT-LT-ST fibroblast viability loss – cell-based, RAS-independent, luminescence, dose response (AID 1935); type: functional; conditions: Homo sapiens;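 further: BJ fibroblasts immortalized with TERT plus LT and ST oncogenes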
# [4] = DRD fibroblast viability loss – cell-based, non-viral oncogenic, luminescence, dose response (AID 1934); type: functional; conditions: Homo sapiens
# cells [5] = type: functional, cell-based
# [6] = luciferase reporter signal reduction – luminescence, H4-C neuroglioblastoma cells, dose response (AID 2458); type: functional, cell-based;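 further: H4 neuroglioblastoma cells stably carrying a luciferase reporter gene fusion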
# [7] = alpha-synuclein stem-loop translation blockers – luminescence, H4 neuroglioblastoma cells, dose confirmation, confirmation (AID 2454); type: functional, cell-based;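 further: H4 neuroglioblastoma cells carrying an alpha-synuclein 5'UTR luciferase reporter; potency for inhibition of the luciferase signal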
# BJ [8] = assay: BJ-TERT fibroblast viability loss – cell-based, RAS-independent, luminescence, dose response (AID 1933); type: functional; conditions: Homo sapiens
# BJ [9] = assay: cells; type: functional, cell-based; conditions: Homo sapiens
# [10] = luciferase reporter signal suppression in cells – H4 neuroglioma cells, luminescence, dose response (AID 1990); type: functional, cell-based
# [11] = alpha-synuclein stem-loop luciferase translation blockers – H4 neuroglioma cells, luminescence, confirmation (AID 1988); type: functional, cell-based
# [12] = A Cell Based Secondary Assay To Explore Cytotoxicity of Compounds that Sensitize Mycobacterium Tuberculosis to Beta-Lactam Antibiotics.; type: functional
# [13] = Trypanosoma cruzi growth suppression in host cells – NIH3T3 host cells, beta-gal luminescence, confirmation (AID 2044); type: functional, cell-based;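 further: intracellular parasites grown in NIH/3T3 mouse fibroblasts as host cells; luminescent beta-galactosidase reporter signal from transgenic T. cruzi replicating inside host cells; inhibitors lower the luminescence signal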
# [14] = molecular target: Heat shock protein HSP 90-alpha (Homo sapiens, UniProt P07900); type: functional, organism-based
# [15] = NIH3T3 cell viability loss – ATP luminescence, mouse fibroblasts, counter-screen, dose response (AID 2010); type: functional, cell-based;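 further: cells exposed to compound for about 90 hours before reading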
# cells [16] = assay: cells
# Bcl-2-like protein 1 = Bcl-2-like protein 1 (Homo sapiens, UniProt Q07817); assay: blockers of BCLXL peptide binding – biochemical, fluorescence polarization, 1536-well, selectivity assay for MCL1 inhibitor project, dose response (AID 2218)
# Bcl-2-like protein 1, sequence (Q07817 whole entry): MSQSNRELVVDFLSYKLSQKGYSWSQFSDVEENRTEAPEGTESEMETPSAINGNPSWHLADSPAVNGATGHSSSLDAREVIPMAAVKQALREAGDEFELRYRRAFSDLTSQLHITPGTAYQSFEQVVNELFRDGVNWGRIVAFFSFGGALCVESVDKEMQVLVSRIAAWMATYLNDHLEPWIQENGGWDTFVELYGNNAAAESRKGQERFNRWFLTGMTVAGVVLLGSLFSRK
# [17] = molecular target: Induced myeloid leukemia cell differentiation protein Mcl-1 (Homo sapiens, UniProt Q07820); assay: blockers of MCL1 binding to BIM peptide – biochemical, fluorescence polarization, BIM-BH3 peptide, 1536-well, dose response (AID 2217)
# Induced myeloid leukemia cell differentiation protein Mcl-1, sequence (Q07820 whole entry): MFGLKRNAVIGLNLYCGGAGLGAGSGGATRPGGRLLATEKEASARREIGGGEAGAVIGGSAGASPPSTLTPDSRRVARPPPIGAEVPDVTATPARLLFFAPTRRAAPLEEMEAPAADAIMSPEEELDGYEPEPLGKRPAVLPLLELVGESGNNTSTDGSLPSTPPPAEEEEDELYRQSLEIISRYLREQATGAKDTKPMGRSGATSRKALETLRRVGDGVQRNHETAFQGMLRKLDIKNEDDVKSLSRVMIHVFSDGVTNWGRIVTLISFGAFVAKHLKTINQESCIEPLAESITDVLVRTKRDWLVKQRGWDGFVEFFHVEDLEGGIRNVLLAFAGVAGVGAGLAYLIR
# Cytochrome P450 3A4 = Cytochrome P450 3A4 (Homo sapiens, UniProt P08684); conditions: Potency;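 further: confirmatory qHTS run detecting inhibitors and substrates of CYP3A4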
# Cytochrome P450 3A4, sequence (P08684 whole entry): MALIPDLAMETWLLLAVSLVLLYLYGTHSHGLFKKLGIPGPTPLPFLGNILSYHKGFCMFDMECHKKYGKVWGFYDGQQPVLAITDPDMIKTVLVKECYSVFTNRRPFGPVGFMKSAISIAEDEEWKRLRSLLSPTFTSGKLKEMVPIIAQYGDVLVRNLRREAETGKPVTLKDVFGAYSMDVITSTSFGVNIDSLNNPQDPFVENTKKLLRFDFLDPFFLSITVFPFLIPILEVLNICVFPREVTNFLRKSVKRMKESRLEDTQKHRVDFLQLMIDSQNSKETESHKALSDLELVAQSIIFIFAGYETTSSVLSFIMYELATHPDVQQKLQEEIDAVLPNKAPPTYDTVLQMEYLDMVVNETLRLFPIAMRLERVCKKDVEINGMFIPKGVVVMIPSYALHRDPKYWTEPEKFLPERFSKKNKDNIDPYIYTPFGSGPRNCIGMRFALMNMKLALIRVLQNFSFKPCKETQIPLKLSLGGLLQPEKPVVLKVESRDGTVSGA
# [18] = molecular target: Melanin-concentrating hormone receptor 1 (Homo sapiens, UniProt Q99705); assay: Late-stage fluorescence-based counterscreen for antagonists of the G-protein coupled receptor 7 (GPR7): cell-based dose response assay to identify antagonists of the melanin-concentrating hormone receptor 1 (MCHR1). [Related pubchem assays (depositor defined):AID1861, AID1880, AID1952, AID2148, AID2251, AID2257, AID485339]; type: functional;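 further: stimulated with 30 nM MCH peptide agonist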
# Melanin-concentrating hormone receptor 1, sequence (Q99705 whole entry): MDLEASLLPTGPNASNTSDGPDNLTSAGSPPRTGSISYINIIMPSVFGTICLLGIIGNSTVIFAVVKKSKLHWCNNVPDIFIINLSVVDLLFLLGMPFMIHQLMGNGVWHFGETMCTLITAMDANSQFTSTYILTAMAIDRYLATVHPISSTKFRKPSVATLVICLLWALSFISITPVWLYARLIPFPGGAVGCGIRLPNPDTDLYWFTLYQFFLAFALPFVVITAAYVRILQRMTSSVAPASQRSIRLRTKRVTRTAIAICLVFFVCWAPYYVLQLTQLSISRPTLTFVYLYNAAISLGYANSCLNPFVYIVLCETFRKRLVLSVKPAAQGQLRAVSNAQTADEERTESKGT
# HEK293 [19] = assay: cells; type: functional, cell-based; conditions: Homo sapiens
# [20] = THP-1 cell cytotoxicity, dose response, cytotoxicity control for non-replicating M. tuberculosis project (AID 489025); type: functional
# HEK293 [21] = assay: inhibition of NOD1-driven NF-kB reporter – cell-based, luminescence, uHTS, primary screen (AID 1578); type: functional; conditions: Homo sapiens
# cells [22] = type: functional
# HEK293 [23] = assay: cells; type: functional, cell-based; conditions: Homo sapiens; remark: listed apart in the source
# HEK293 [24] = assay: cells; type: functional, cell-based; conditions: Homo sapiens; remark: listed apart in the source
# [25] = molecular target: T1, Microphthalmia-associated transcription factor (Homo sapiens, UniProt O75030); assay: reducers of TRPM1 reporter luminescence, concentration series – cell-based, SK-MEL-5, cherry-picked, set 3, MITF inhibitor project, dose response (AID 493073); type: functional;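 further: SK-MEL-5 melanoma cells with luciferase driven by the MITF target TRPM1 promoter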
# T1 sequence (O75030 whole entry): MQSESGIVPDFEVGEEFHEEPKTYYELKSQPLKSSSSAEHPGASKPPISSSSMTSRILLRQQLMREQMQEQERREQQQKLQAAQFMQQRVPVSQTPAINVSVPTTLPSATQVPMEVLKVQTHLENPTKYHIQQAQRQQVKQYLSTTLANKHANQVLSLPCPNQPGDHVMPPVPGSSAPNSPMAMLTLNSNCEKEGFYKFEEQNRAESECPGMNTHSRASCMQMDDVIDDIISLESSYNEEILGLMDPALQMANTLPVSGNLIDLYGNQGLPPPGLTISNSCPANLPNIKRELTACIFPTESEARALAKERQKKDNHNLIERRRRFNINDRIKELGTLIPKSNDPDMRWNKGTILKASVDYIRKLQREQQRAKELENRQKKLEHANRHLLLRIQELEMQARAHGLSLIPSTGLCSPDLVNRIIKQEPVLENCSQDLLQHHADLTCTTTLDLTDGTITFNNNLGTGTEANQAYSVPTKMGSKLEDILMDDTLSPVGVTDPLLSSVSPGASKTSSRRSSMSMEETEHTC
# INS1 = assay: INS-1E survival protection against cytokine death – cell-based, luminescence, retest, dose response (AID 449756); type: functional; conditions: Rattus norvegicus;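 further: cell death triggered by IL-1 beta plus TNF-alpha plus IFN-gamma mixture; protective hits raise ATP signal compared with cytokine alone wells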
# BJ [26] = assay: growth inhibition of engineered Ras-driven BJ cells – cell-based, alamar blue fluorescence, cherrypicked samples, dose response (AID 2631); type: functional; conditions: Homo sapiens;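 further: confirmatory dose-response assay in RAS-dependent BJ fibroblasts engineered with TERT, LT and ST, with cytotoxicity read by fluorescence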
# [27] = molecular target: Nucleotide-binding oligomerization domain-containing protein 2 (Homo sapiens, UniProt Q9HC29); assay: inhibition of NOD2-driven NF-kB reporter – cell-based, luminescence, uHTS, HEK293 (AID 1566); type: functional
# Nucleotide-binding oligomerization domain-containing protein 2, sequence (Q9HC29 whole entry, the tested form may be a part): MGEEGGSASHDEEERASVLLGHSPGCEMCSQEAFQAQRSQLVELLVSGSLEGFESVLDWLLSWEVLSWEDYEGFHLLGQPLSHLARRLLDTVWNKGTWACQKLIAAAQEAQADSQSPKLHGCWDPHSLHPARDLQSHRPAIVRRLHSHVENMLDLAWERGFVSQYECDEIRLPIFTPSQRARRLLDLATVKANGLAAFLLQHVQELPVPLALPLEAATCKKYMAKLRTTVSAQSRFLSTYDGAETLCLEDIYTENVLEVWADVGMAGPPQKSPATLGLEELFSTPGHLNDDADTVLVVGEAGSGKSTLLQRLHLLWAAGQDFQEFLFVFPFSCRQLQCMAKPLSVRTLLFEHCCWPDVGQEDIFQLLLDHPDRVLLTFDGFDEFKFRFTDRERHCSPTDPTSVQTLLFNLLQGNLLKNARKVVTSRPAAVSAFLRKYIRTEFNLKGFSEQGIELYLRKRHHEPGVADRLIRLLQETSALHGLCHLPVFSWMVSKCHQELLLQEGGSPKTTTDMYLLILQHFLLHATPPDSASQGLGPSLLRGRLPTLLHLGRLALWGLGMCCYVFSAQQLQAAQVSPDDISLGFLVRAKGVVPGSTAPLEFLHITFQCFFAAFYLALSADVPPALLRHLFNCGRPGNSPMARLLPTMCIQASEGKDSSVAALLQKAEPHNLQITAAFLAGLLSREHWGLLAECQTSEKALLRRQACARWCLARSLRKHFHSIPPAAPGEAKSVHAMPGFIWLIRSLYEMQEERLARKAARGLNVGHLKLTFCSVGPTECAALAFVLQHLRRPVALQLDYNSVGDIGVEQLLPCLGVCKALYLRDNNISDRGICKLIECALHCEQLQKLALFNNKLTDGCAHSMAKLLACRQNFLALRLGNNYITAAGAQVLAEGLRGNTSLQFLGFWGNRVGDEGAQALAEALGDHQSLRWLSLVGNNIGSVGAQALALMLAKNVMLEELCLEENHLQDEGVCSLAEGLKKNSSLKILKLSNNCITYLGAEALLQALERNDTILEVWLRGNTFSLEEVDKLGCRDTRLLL
# [28] = HepG2 cell cytotoxicity, dose response, cytotoxicity control for non-replicating M. tuberculosis project (AID 489018); type: functional; conditions: Mycobacterium tuberculosis
# HEK293 [29] = assay: NOD2 signaling inhibitors in MDP-stimulated cells, cell-based, uHTS, luminescence (AID 2001); type: functional; conditions: Homo sapiens
# [30] = Vero E6 cell cytotoxicity, dose response, cytotoxicity control for non-replicating M. tuberculosis project, secondary assay (AID 492998); type: functional, VeroE6; conditions: Vero C1008
# Neurotensin receptor type 1, sequence (P30989 whole entry): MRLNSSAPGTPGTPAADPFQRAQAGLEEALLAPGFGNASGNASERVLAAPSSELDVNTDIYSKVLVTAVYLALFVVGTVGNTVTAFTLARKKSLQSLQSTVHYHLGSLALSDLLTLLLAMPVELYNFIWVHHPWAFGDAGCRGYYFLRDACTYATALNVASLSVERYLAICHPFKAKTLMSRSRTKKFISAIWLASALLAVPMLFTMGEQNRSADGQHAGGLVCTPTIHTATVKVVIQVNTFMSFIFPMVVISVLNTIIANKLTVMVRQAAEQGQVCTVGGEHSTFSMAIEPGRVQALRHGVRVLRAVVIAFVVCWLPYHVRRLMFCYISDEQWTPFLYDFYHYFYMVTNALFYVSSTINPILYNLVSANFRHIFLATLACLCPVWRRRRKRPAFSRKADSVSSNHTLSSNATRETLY
structure (smiles),measurement,setting,value
COc1cccc(/C=C/C(=O)c2cccc([N+](=O)[O-])c2)c1OC,EC50,[1],9.39 µM (active)
Brc1ccc(C2=Nn3c(nnc3-c3[nH]nc4c3CCC4)SC2)cc1,EC50,[2],> 120 µM (not active)
same,EC50,BJ [3],138 µM (inconclusive)
same,EC50,[4],1.65 µM (active)
same,EC50,cells [5],2.12 µM (active)
same,EC50,[6],> 3.8 µM (not active)
same,EC50,[7],1.97 µM (active)
same,EC50,BJ [8],2.33 µM (active)
same,EC50,BJ [9],43.5 µM (active)
same,EC50,[10],11.9 µM (active)
same,EC50,[11],< 0.1 µM (active)
C=C(C)COc1ccc2c(C)c(C)c(=O)oc2c1OCC(=C)C,CC50,[12],> 40 µM (active)
Cc1sc(NC(=O)c2ccco2)c(C(c2cccnc2)N2CCC(C)CC2)c1C (stereo unspecified),EC50,[13],< 0.1 µM (active)
same,AC50,[14],4.94 µM (active)
same,EC50,[15],9.92 µM (active)
same,EC50,cells [16],0.182 µM (active)
C[C@H](NS(=O)(=O)OCC(Cl)(Cl)Cl)C1CC1c1ccccc1 (stereo partly specified),IC50,Bcl-2-like protein 1,> 109 µM (not active)
same,IC50,[17],65.4 µM (not active)
COC(=O)[C@@]1(C)C=C[C@@H](Cc2ccccc2)N1C(=O)c1ccccc1,AC50,Cytochrome P450 3A4,20 µM (inconclusive)
CCc1ccc2oc(-c3cc(N)cc(C)c3O)nc2c1,CC50,[12],> 40 µM (active)
CCOc1ccc(Oc2c(Br)cnn(-c3ccc(C(C)C)cc3)c2=O)cc1,IC50,[18],3.1 µM (active)
O=C(N/N=C/c1ccc([N+](=O)[O-])o1)c1cc2ccccc2o1,IC50,HEK293 [19],> 20 µM (inactive)
same,EC50,[2],> 60 µM (not active)
same,EC50,BJ [3],14.1 µM (inconclusive)
same,EC50,[4],23.8 µM (active)
same,CC50,[20],22 µM (active)
same,EC50,HEK293 [21],7.3 µM (active)
same,IC50,cells [22],1.85 µM (active)
same,IC50,HEK293 [23],> 20 µM (inactive)
same,IC50,HEK293 [24],16.1 µM (active)
same,AC50,[25],5.99 µM (active)
same,AC50,INS1,2.63 µM (active)
same,EC50,BJ [26],4.63 µM (inconclusive)
same,EC50,[27],10.5 µM (active)
same,EC50,BJ [8],21.2 µM (active)
same,CC50,[28],17 µM (active)
same,IC50,HEK293 [29],17.8 µM (inactive)
same,CC50,[30],> 20 µM (active)
same,EC50,BJ [9],10.7 µM (active)
same,EC50,[10],> 120 µM (not active)
same,EC50,[11],> 120 µM (not active)
